Reference: US20230219978A1, “COMPOUND HAVING MACROCYCLIC STRUCTURE AND USE THEREOF” (SCINNOHUB PHARMACEUTICAL CO., LTD, priority 2020, published 2023)

What was measured:
Assay type in all cases: biochemical
RET wt = biological target: T1, RET wt (Homo sapiens, UniProt P07949); experiment: In vitro kinase activity assay (mobility shift assay), RET wild type; conditions: ATP 16 μM, reaction time 60 min
T1 construct: purchased Carna 08-159
Description: (§1) The IC50 (half inhibitory concentration) values of the compounds were used as an indicator to evaluate the inhibitory effect of the compound on RET wild-type, RET mutant, TRKa, SRC, BTK and/or mutated BTK kinase.
(§2) Using the method of Mobility shift assay, the compounds were tested for inhibitory activity against the following kinases: RET wild type, RET mutant, TRKa, SRC, BTK and/or mutated BTK. The initial concentration of the test compound was 1000 nM, 3-fold dilution, 10 concentrations, detected in a well for each concentration.
(§3) 20 mM hydroxyethylpiperazineethanesulfonic acid (Hepes) (pH 7.5) buffer, 10 mM MgCl2, 1 mM ethylene glycol bis(aminoethyl ether)tetraacetic acid (EGTA), 0.02% polyoxyethylene lauryl ether (Brij35), 0.02 mg/ml […] (BSA), 0.1 mM Na3VO4, 2 mM dithiothreitol (DTT), 1% DMSO.
(§4) The test compounds were dissolved in 100% dimethyl sulfoxide (DMSO) system, and prepared as 10 mM for use, and stored in a nitrogen cabinet away from light.
(§5) • (1) Preparing 1× kinase reaction buffer. • (2) Preparation of compound concentration gradient: the initial concentration of the compounds was 1000 nM, which was diluted as 100-fold final concentration of solution in 100% dimethyl sulfoxide (DMSO) in a 384-well plate. The compound was accurately 3-fold diluted with the kinase buffer solution, 10 concentrations in total, and the final concentration was 0.0508 nM. The 100-fold final concentration of solution in 100% dimethyl sulfoxide (DMSO) was obtained by dilution in 384 source plate. The liquid separator Echo 550 was used to transfer 250 nl of 100-fold final concentration of compound to the target 384 well plate. 250 nl of DMSO was added to the positive and negative control wells. • (3) 2.5-fold final concentration of kinase solution was prepared by the 1× kinase buffer. • (4) 10 4, of 2.5-fold final concentration of kinase solution was added to the compound well and the positive control well, respectively; 10 4, of 1× kinase buffer was added to the negative control well. • (5) After centrifuging at 1000 rpm for 30 second, the reaction plate was shaken and mixed, followed by incubation at room temperature for 10 min. • (6) a mixed solution of 25/15-fold final concentration of adenosine triphosphate (ATP) and kinase substrate was prepared by 1× kinase buffer. • (7) The mixed solution (15 μL) of 25/15-fold final concentration of adenosine triphosphate (ATP) and substrate was added to initiate the reaction. • (8) 384-well plate was centrifuged at 1000 rpm for 30 second, shaken and mixed well, and then incubated at room temperature for 30-240 min. • (9) After stopping the kinase reaction, the plate was centrifugated at 1000 rpm for 30 second, shaken and mixed well. • (10)The conversion rate was read with Caliper EZ Reader.
(§6) wherein Conversion%_sample is the conversion rate reading of the sample; Conversion%_min: the mean value of negative control wells, representing the conversion rate reading of wells without enzymes; Conversion%_max: the mean value of positive control wells, representing the conversion rate reading of wells without compound inhibition.
(§7) The log value of concentration was taken as the X axis, and the percentage inhibition rate was taken as the Y axis. Graphpad 6.0 analysis software was used to fit the dose-response curve, so as to obtain the IC50 value of each compound on the enzyme activity

TRKa = biological target: T2, TRKa (Homo sapiens, UniProt P04629); experiment: In vitro kinase activity assay (mobility shift assay), TRKa; conditions: ATP 47.8 μM, reaction time 30 min
T2 construct: purchased Carna 08-186
T2 sequence (P04629 33-796): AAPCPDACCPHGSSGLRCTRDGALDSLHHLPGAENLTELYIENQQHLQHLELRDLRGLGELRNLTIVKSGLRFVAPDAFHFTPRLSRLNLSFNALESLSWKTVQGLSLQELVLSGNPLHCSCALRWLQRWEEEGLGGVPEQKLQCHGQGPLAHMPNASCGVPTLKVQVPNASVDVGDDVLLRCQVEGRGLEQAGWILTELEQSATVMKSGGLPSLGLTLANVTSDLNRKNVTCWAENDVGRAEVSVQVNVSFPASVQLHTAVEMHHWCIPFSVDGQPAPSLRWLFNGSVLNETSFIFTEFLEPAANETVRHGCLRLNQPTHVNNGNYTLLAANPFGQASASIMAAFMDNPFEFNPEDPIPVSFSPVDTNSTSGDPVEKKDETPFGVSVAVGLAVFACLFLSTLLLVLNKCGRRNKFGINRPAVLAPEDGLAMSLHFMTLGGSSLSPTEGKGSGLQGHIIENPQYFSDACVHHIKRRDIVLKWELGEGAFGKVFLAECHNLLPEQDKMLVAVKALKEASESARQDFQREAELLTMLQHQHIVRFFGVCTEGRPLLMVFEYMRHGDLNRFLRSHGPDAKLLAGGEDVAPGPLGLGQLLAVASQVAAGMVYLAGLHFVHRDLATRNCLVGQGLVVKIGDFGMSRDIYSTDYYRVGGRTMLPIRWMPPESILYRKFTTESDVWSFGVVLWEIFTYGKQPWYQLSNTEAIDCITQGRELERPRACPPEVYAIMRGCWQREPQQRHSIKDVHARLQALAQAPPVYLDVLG
Description: as §1, §2, §3, §4, §5, §6, §7

RET G810R = biological target: T3, RET G810R (Homo sapiens, UniProt P07949, G810R); experiment: In vitro kinase activity assay (mobility shift assay), RET G810R; conditions: ATP 201 μM, reaction time 4 h
T3 construct: purchased Proqinase 1724-0000-1
T3 sequence (P07949 29-1114 G810R): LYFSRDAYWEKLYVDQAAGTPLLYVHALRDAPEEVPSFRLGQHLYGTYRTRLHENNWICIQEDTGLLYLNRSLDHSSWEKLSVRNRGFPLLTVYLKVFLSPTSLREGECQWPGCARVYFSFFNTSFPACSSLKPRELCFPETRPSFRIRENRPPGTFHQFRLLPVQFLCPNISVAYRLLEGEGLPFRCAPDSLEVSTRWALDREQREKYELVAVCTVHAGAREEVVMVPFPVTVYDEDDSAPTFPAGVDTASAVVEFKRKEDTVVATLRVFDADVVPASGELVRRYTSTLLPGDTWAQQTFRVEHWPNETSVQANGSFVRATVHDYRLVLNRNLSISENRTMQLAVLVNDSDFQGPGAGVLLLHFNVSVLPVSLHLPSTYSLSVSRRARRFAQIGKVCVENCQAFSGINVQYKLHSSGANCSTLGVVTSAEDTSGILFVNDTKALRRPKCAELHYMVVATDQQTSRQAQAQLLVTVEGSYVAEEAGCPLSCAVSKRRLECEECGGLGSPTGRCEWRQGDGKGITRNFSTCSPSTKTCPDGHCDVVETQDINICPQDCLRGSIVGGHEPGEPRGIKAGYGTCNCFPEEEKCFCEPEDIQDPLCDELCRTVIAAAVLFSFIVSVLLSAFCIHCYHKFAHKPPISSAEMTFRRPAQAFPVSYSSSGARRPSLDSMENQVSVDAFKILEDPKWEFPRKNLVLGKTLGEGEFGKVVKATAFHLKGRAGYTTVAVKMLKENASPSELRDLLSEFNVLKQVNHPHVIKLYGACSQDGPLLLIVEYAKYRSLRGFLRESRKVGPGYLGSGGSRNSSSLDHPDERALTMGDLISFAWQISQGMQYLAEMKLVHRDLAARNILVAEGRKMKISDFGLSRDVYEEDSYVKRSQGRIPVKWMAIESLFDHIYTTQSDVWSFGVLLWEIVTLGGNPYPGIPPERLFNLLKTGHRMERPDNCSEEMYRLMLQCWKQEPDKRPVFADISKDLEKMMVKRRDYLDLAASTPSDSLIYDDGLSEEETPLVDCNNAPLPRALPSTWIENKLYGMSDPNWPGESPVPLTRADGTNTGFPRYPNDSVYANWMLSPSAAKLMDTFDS
Description: as §1, §2, §3, §4, §5, §6, §7

BTK = biological target: T4, BTK (Homo sapiens, UniProt Q06187); experiment: In vitro kinase activity assay (mobility shift assay), BTK; conditions: ATP 71 μM, reaction time 30 min
T4 construct: purchased Carna 08-180
T4 sequence (Q06187 whole entry): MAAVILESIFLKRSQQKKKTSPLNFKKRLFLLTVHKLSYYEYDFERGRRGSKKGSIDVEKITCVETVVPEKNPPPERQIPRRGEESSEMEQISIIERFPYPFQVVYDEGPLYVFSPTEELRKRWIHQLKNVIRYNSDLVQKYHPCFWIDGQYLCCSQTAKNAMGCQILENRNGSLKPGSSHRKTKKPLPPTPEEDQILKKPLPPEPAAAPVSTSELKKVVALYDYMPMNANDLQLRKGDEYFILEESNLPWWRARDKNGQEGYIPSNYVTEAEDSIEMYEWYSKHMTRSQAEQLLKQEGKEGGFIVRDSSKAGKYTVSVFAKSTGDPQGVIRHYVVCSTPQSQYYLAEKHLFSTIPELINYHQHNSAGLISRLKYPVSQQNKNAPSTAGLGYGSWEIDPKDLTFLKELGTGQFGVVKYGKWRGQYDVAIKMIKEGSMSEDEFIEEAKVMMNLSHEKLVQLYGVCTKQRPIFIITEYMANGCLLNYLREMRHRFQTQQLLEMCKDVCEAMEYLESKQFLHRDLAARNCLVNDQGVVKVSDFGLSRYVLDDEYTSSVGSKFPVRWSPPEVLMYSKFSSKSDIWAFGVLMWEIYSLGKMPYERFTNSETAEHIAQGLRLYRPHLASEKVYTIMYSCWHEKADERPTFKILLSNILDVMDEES
Description: as §1, §2, §3, §4, §5, §6, §7

RET V804M = biological target: T5, RET V804M (Homo sapiens, UniProt P07949, V804M); experiment: In vitro kinase activity assay (mobility shift assay), RET V804M; conditions: ATP 5.4 μM, reaction time 60 min
T5 construct: purchased signalchem R02-12GG
T5 sequence (P07949 29-1114 V804M): as the sequence (P07949 29-1114 G810R) above, with V776M, R782G counted along it
Description: as §1, §2, §3, §4, §5, §6, §7

T1 sequence (P07949 29-1114): as the sequence (P07949 29-1114 G810R) above, with R782G counted along it

Row | IC50 (RET wt) [nM] | IC50 (TRKa) [nM] | IC50 (RET G810R) [nM] | IC50 (BTK) [nM] | IC50 (RET V804M) [nM] | SMILES
1 | 5280 | 46 |  |  |  | C[C@H]1CNC(=O)c2cnn3cc(O)c(nc23)NCc2cc(F)cnc2O1 [Compound 2, (S, 1^3E, 1^4E)-4^5-fluoro-6-methyl-1^6-hydroxy-5-oxa-2,8-diaza-1(5,3)-pyrazolo[1,5-a]pyrimidina-4(3,2)-pyridinacyclononaphan-9-one]
2 | 237 | > 10000 |  |  |  | COc1cc(-c2cn3ncc4c3nc2NCc2cc(F)cnc2O[C@@H](C)CNC4=O)ccn1 [Compound 5, (S, 1^3E, 1^4E)-4^5-fluoro-1^6-(2-methoxypyridin-4-yl)-6-methyl-5-oxa-2,8-diaza-1(5,3)-pyrazolo[1,5-a]pyrimidin-4(3, 2)-pyridinacyclononaphan-9-one]
3 | 5.1 | 1340 |  |  |  | C[C@H]1CNC(=O)c2cnn3cc(-c4ccccc4F)c(nc23)NCc2cc(F)cnc2O1 [Compound 6, (S, 1^3E, 1^4E)-1^6-(2-fluorophenyl)-4^5-fluoro-6-methyl-5-oxa-2,8-diaza-1(5,3)-pyrazolo[1,5-a]pyrimidina-4(3,2)-pyridinacyclononaphan-9-one]
4 | > 1000 |  | > 1000 | > 1000 |  | C[C@H]1CNC(=O)c2cnn3cc(-c4ccc5[nH]c(=O)[nH]c5c4)c(nc23)NCc2cc(F)cnc2O1 [Compound 38, (S, 1^3E, 1^4E)-4^5-fluoro-6-methyl-1^6-(2-oxo-2,3-dihydro-1H-benzo[d]imidazol-5-yl)-5-oxo-2,8-diaza-1(5,3)-pyrazolo[1,5-a]pyrimidin-4(3,2)-pyridinacyclononaphan-9-one]
5 | 13 |  | > 10000 | 2070 | > 10000 | C[C@H]1CNC(=O)c2cnn3cc(C4=CCCC4)c(nc23)NCc2cc(F)cnc2O1 [Compound 41, (S, 1^3E, 1^4E)-1^6-(cyclopent-1-en-1-yl)-4^5-fluoro-6-methyl-5-oxa-2,8-diaza-1(5,3)-pyrazolo[1,5-a]pyrimidin-4(3,2)-pyridinacyclononaphan-9-one]
6 | 68 |  | > 10000 | > 10000 | > 10000 | COC(=O)NC1CC=C(c2cn3ncc4c3nc2NCc2cc(F)cnc2O[C@@H](C)CNC4=O)CC1 (stereo partly drawn) [Compound 43, methyl (4((S, 1^3E, 1^4E)-4^5-fluoro-6-methyl-9-oxo-5-oxa-2,8-diaza-1(5,3)-pyrazolo[1,5-a]pyrimidin-4(3,2)-pyridinacyclononaphan-1^6-yl)cyclohex-3-en-1-yl)carbamate]
7 | 3.5 |  | 361 | 3.6 |  | C[C@H]1CNC(=O)c2cnn3c(N)c(-c4ccc(N)cc4)c(nc23)NCc2cc(F)cnc2O1 [Example 60, (S, 1^3E, 1^4E)-1^7-amino-1^6-(4-aminophenyl)-4^5-fluoro-6-methyl-5-oxa-2,8-diaza-1(5,3)-pyrazolino[1,5-a] pyrimidin-4(3,2)-pyridinacyclononaphan-9-one]
8 | 6.2 |  | 155 |  | 15 | C[C@H]1CNC(=O)c2cnn3c(N)c(-c4ccc(NC(=O)OCC(F)(F)F)cc4)c(nc23)NCc2cc(F)cnc2O1 [Example 68, trifluoroethyl (4-((S, 1^3E, 1^4E)-1^7-amino-4^5-fluoro-6-methyl-9-oxo-5-oxa-2,8-diaza-1(5,3)-pyrazolino [1,5-a]pyrimidin-4(3,2)-pyridinacyclononaphan-1^6-yl)-phenyl)carbamate]
9 | 0.87 |  | 16 |  | 2.8 | CCOC(=O)Nc1ccc(-c2c3nc4c(cnn4c2N)C(=O)NC[C@H](C)Oc2ncc(F)cc2CN3)cc1F [Example 69, ethyl (4-((S, 1^3E, 1^4E)-1^7-amino-4^5-fluoro-6-methyl-9-oxo-5-oxa-2,8-diaza-1(5,3)-pyrazolo[1,5-a]pyrimidin-4(3,2)-pyridinacyclononaphan-1^6-yl)-2-fluorophenyl)carbamate]
10 | 15 |  | > 1000 |  | 551 | CCOC(=O)Nc1c(F)cc(-c2c3nc4c(cnn4c2N)C(=O)NC[C@H](C)Oc2ncc(F)cc2CN3)cc1F [Example 70, (S, 1^3E, 1^4E)-1^7-amino-4^5-fluoro-6-methyl-1^6-(6^2′^6-difluoro-6^1-(ethoxycarbonyl)amino-4-yl)phenyl-5-oxa-2,8-diaza-1(5,3)-pyrazolo[1,5-a]pyrimidinyl-4(3,2)-pyridinacyclononaphan-9-one]
11 | 1.2 |  | 23 |  | 1.6 | CCOC(=O)Nc1ccc(-c2c3nc4c(cnn4c2N)C(=O)NC[C@H](C)Oc2ncc(F)cc2CN3)c(F)c1 [Example 71, ethyl (4-((S, 1^3E, 1^4E)-1^7-amino-4^5-fluoro-6-methyl-9-oxo-5-oxo-2,8-diaza-1(5,3)-pyrazolo[1,5-a]pyrimidin-4(3,2)-pyridinacyclononaphan-1^6-yl)-3-fluorophenyl)carbamate]
12 | 0.56 |  | 14 |  | 1.4 | CCOC(=O)Nc1ccc(-c2c3nc4c(cnn4c2N)C(=O)NCCOc2ncc(F)cc2CN3)cc1 [Example 72, ethyl (4-((1^3E, 1^4E)-1^7-amino-4^5-fluoro-9-oxo-5-oxo-2,8-diaza-1(5,3)-pyrazolo[1,5-a]pyrimidin-4(3,2)-pyridinacyclononaphan-1^6-yl)phenyl)carbamate]
13 | 4.4 |  | 238 |  | 137 | Nc1c(-c2ccccc2)c2nc3c(cnn13)C(=O)NCCCc1ncc(F)cc1CN2 [Example 73, (1^3E, 1^4E)-1^7-(amino)-4^5-fluoro-1^6-phenyl-2,8-aza-1(5,3)-pyrazolo[1,5-a]pyrimidinyl-4(3,2)-pyridinacyclononaphan-9-one]
14 | 0.6 |  | 15 |  | 0.99 | CCNC(=O)Nc1ccc(-c2c3nc4c(cnn4c2N)C(=O)NC[C@H](C)Oc2ncc(F)cc2CN3)cc1 [Example 80, 1-(4-((S, 1^3E, 1^4E)-1^7-amino-4^5-fluoro-6-methyl-9-oxo-5-oxa-2,8-diaza-1(5,3)-pyrazolo[1,5-a]pyrimidin-4(3,2)-pyridinacyclononaphan-1^6-yl)-phenyl)-3-ethylurea]
15 | 89 |  | > 1000 |  | 384 | CCN(C)C(=O)Nc1ccc(-c2c3nc4c(cnn4c2N)C(=O)NC[C@H](C)Oc2ncc(F)cc2CN3)cc1 [Example 81, 3-(4-((S, 1^3E,VE)-1^7-amino-4^5-fluoro-6-methyl-9-oxo-5-oxa-2,8-diaza-1(5,3)-pyrazolo[1,5-a]pyrimidin-4(3,2)-pyridinacyclononaphan-1^6-yl)-phenyl)-1-ethyl-1-methylure a]
16 | 1.1 |  | 138 |  | 9.5 | C[C@H]1CNC(=O)c2cnn3c(N)c(-c4cnn(C)c4)c(nc23)NCc2cc(F)cnc2O1 [Example 82, (S, 1^3E, 1^4E)-1^7-amino-4^5-fluoro-6-methyl-1^6-(1-methyl-1H-pyrazol-4-yl)-5-oxa-2,8-diaza-1(5,3)-pyrazolo[1,5-a]pyrimidin-4(3,2)-pyridinacyclononaphan-9-one]
17 | 49 |  | > 1000 |  | 281 | CCNC(=O)Cc1ccc(-c2c3nc4c(cnn4c2N)C(=O)NC[C@H](C)Oc2ncc(F)cc2CN3)cc1 [Example 83, 2-(4-((S, 1^3E, 1^4E)-1^7-4^5-fluoro-6-methyl-9-oxo-5-oxa-2,8-diaza-1(5,3)-pyrazolo[1,5-a]pyrimidin-4(3,2)-pyridinacyclononaphan-1^6-yl)phenyl)-N-ethylacetamide]
